Results as given in patent US20240350647A1, “STING SENSITIZING AGENTS” (STipe Therapeutics ApS, priority 2023, published 2024).
Where a SMILES comes first, the peptide text is derived from it. Bridges are numbered along the chain shown (N, C = ends). [ ]: non-standard residue; d: D form. The star is where a group is joined. C16 diacid = O=C(O)CCCCCCCCCCCCCCC(=O)*; AEEA = NCCOCCOCC(=O)O

Key:
[1] = Pharmacokinetics after intravenous bolus, mouse; assay type: in vivo; details: 10 mg/kg bolus IV
Procedure: Test agents were formulated in 2% (v/v) propylene glycol in 25 mM HEPES, pH 7.4 and administered with a bolus injection at 10.0 mg/kg via the tail vain to male CD-1 mice (Charles River Laboratories) or male Wistar rats (Charles River Laboratories), or with a 30-min intravenous infusion at 4 mg/kg to male cynomolgus monkeys.
Blood samples were collected at 2.5, 5, 10, 30, 60, 120, 240 and 480 minutes after administration (mouse and rat), or at 5, 15, 30, 60, 120, 240, 360, 480 and 1440 min (Agent 1) or at 5, 15, 30, 45, 60, 90, 150, 240 and 480 min (Agent 2) after the start of infusion in monkeys. Samples were immediately mixed with a protease inhibitor cocktail (Roche cOmplete™ EDTA-free) before being cooled and centrifuged for plasma separation. Plasma samples were frozen and stored at −20° C. until analysis.
To rat samples, blank rat plasma was added up to a volume of 100 μl. […]
Mouse and rat samples: Separation was done with a C18 column (Phenomenex Kinetex XB—C18 (100×2.1 mm, 1.7 μm)), using a gradient between 1% formic acid in water and 2% DMSO in acetonitrile (Agent 1) or acetonitrile (Agent 2). […] The range of quantitation was 4-20,000 ng/mL.
Non-compartmental PK analysis on plasma concentration versus time data was analyzed by non-compartmental approaches using the WinNonlin software program (version 6.3 or above, Pharsight, Mountain View, CA). […]

[2] = FIG. 10B; details: rat, in vivo, iv, 10 mg/kg
Procedure: Table printed on a drawing sheet, FIG. 10B
The patent's description of the figure: FIGS. 10A-10C. Pharmacokinetic profile and parameter for peptides after intravenous administration. FIG. 10A) Mouse PK data (10 mg/kg, bolus IV, n=3 per timepoint). FIG. 10B) Rat PK data (10 mg/kg, bolus IV, n=3 per timepoint). FIG. 10C) Non-human primate (NHP) PK data (4 mg/kg, 30 min IV infusion, n=3). Error bars represent the standard deviation (SD).
First reader's note: Rat PK parameters; the plot legend on the same sheet gives 10 mg/kg (IV) for both agents, and the top-left cell 'PK parameters / rat' spans the first two rows.

CC[C@H](C)[C@H](NC(=O)[C@H](CC(N)=O)NC(=O)[C@H](CCCCN)NC(=O)[C@H](C)NC(=O)[C@H](CCCCN)NC(=O)[C@H](CCCCN)NC(=O)COCCOCCNC(=O)COCCOCCNC(=O)CCCCCCCCCCCCCCC(=O)O)C(=O)N[C@H](C(=O)N[C@@H](CC(C)C)C(=O)N[C@@H](CC(C)C)C(=O)N[C@@H](CCCCN)C(=O)NCC(=O)N[C@@H](CC(C)C)C(=O)N[C@@H](CCC(=O)O)C(=O)N[C@H](C(=O)N[C@H](C(=O)N[C@@H](CC(N)=O)C(=O)N[C@@H](CC(=O)O)C(=O)N[C@@H](Cc1c[nH]c2ccccc12)C(=O)N[C@@H](Cc1c[nH]cn1)C(=O)N[C@@H](Cc1ccccc1)C(=O)N[C@H]1CSSC[C@@H](C(N)=O)NC(=O)[C@@H](CCCNC(=N)N)NC(=O)[C@H](CCCNC(=N)N)NC(=O)[C@@H](CCCCN)NC(=O)[C@H](CCCCN)NC(=O)[C@@H](CCCNC(=N)N)NC(=O)CNC(=O)[C@@H](CCCNC(=N)N)NC(=O)[C@H](CCCNC(=N)N)NC(=O)[C@@H](CCCNC(=N)N)NC1=O)[C@@H](C)CC)C(C)C)C(C)C [Agent 1] ({C16 diacid-AEEA-AEEA}-KKAKNIVLLKGLEVINDWHFC[dR]R[dR]G[dR]K[dK]R[dR]C-NH2; disulfide 21-31)
increase in exposure (AUC0-inf) compared to Agent 2, at equal dose [1]: approximately 32 fold
C0 [2]: 72.7 µg/mL
